Measurements: ChEMBL document CHEMBL3132769, “Fragment growing to retain or alter the selectivity of anchored kinase hinge-binding fragments” (Medchemcomm, 2014)

Key:
[1] = biological target: Serine/threonine-protein kinase MARK2 (Homo sapiens) (UniProt Q7KZI7); assay: Inhibition of human full length MARK2 expressed in baculovirus assessed as substrate phosphorylation using fluorescence-labelled peptides as substrate at 0.2 uM after 90 mins by microfluidic peptide phosphorylation assay
[2] = biological target: Serine/threonine-protein kinase Chk2 (Homo sapiens) (UniProt O96017); assay: Inhibition of human full length CHK2 expressed in baculovirus assessed as substrate phosphorylation using fluorescence-labelled peptides as substrate at 420 uM after 90 mins by microfluidic peptide phosphorylation assay
Serine/threonine-protein kinase Chk2 (Homo sapiens), sequence (O96017 whole entry): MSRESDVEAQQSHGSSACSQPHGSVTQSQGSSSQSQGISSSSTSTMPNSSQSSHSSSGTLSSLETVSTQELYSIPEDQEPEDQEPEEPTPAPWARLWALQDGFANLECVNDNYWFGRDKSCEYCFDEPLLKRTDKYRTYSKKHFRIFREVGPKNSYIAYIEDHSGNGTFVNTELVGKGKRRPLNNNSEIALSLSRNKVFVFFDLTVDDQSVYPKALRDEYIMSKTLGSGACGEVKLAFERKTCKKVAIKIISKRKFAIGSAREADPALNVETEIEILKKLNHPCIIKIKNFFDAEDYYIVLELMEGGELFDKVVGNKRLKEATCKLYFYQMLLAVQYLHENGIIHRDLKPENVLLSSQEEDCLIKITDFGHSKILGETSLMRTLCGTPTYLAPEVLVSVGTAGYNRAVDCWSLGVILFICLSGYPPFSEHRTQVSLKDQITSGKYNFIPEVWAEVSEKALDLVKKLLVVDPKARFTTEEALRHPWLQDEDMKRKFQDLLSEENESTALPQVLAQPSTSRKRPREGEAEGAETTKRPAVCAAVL

[3] = biological target: T1, cGMP-dependent protein kinase 1 (Homo sapiens) (UniProt Q13976); assay: Inhibition of human full length PKG-1beta expressed in baculovirus assessed as substrate phosphorylation using fluorescence-labelled peptides as substrate at 2 uM after 90 mins by microfluidic peptide phosphorylation assay
T1 sequence (whole entry): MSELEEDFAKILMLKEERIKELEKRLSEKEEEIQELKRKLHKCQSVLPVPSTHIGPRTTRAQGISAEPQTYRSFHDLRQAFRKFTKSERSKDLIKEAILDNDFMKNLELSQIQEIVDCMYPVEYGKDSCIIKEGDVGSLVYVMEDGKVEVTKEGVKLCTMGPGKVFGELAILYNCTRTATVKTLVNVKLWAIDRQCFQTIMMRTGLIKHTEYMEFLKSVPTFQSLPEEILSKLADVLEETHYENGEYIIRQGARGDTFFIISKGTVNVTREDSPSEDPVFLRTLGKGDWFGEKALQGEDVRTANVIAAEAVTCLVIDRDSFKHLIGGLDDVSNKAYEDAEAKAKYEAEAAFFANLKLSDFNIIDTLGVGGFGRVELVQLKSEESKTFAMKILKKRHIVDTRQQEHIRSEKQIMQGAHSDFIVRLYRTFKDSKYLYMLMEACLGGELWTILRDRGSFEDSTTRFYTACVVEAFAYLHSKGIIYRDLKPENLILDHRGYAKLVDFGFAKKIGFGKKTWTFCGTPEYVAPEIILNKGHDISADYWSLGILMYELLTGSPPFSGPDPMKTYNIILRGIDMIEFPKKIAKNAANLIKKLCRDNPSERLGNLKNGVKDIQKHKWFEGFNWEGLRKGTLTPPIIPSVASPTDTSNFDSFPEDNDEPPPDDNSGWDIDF

[4] = biological target: Ribosomal protein S6 kinase alpha-5 (Homo sapiens) (UniProt O75582); assay: Inhibition of human full length MSK1 expressed in baculovirus assessed as substrate phosphorylation using fluorescence-labelled peptides as substrate at 2 uM after 90 mins by microfluidic peptide phosphorylation assay
Ribosomal protein S6 kinase alpha-5 (Homo sapiens), sequence (O75582 whole entry, looked up): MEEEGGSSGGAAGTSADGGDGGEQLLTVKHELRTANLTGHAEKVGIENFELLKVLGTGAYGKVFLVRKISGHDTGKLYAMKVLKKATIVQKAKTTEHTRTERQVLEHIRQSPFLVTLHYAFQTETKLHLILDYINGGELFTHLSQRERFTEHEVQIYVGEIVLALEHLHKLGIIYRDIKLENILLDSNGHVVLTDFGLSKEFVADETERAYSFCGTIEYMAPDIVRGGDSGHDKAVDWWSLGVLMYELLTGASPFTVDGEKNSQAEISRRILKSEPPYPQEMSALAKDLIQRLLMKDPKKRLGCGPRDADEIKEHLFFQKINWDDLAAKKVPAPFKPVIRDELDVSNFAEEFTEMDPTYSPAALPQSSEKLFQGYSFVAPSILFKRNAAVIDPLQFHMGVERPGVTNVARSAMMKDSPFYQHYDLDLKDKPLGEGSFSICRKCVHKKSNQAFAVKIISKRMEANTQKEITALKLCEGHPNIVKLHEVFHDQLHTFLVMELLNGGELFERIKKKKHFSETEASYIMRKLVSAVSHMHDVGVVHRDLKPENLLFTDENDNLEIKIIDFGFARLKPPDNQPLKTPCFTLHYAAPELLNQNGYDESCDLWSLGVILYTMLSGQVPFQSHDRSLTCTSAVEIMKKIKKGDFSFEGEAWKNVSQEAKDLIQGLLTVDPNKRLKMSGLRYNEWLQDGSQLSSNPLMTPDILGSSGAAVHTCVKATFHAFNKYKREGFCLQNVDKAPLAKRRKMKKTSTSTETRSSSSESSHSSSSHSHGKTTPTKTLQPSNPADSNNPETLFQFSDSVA

[5] = biological target: T1, cGMP-dependent protein kinase 1 (Homo sapiens); settings: 0.1 uM
Description: Inhibition of human full length PKG-1a expressed in baculovirus assessed as substrate phosphorylation using fluorescence-labelled peptides as substrate at 0.1 uM after 90 mins by microfluidic peptide phosphorylation assay

[6] = biological target: Rho-associated protein kinase 2 (Homo sapiens) (UniProt O75116); assay: Inhibition of human ROCK2 catalytic domain expressed in baculovirus assessed as substrate phosphorylation using fluorescence-labelled peptides as substrate at 95 uM after 90 mins by microfluidic peptide phosphorylation assay
Rho-associated protein kinase 2 (Homo sapiens), sequence (O75116 whole entry, looked up, the tested form may be a part): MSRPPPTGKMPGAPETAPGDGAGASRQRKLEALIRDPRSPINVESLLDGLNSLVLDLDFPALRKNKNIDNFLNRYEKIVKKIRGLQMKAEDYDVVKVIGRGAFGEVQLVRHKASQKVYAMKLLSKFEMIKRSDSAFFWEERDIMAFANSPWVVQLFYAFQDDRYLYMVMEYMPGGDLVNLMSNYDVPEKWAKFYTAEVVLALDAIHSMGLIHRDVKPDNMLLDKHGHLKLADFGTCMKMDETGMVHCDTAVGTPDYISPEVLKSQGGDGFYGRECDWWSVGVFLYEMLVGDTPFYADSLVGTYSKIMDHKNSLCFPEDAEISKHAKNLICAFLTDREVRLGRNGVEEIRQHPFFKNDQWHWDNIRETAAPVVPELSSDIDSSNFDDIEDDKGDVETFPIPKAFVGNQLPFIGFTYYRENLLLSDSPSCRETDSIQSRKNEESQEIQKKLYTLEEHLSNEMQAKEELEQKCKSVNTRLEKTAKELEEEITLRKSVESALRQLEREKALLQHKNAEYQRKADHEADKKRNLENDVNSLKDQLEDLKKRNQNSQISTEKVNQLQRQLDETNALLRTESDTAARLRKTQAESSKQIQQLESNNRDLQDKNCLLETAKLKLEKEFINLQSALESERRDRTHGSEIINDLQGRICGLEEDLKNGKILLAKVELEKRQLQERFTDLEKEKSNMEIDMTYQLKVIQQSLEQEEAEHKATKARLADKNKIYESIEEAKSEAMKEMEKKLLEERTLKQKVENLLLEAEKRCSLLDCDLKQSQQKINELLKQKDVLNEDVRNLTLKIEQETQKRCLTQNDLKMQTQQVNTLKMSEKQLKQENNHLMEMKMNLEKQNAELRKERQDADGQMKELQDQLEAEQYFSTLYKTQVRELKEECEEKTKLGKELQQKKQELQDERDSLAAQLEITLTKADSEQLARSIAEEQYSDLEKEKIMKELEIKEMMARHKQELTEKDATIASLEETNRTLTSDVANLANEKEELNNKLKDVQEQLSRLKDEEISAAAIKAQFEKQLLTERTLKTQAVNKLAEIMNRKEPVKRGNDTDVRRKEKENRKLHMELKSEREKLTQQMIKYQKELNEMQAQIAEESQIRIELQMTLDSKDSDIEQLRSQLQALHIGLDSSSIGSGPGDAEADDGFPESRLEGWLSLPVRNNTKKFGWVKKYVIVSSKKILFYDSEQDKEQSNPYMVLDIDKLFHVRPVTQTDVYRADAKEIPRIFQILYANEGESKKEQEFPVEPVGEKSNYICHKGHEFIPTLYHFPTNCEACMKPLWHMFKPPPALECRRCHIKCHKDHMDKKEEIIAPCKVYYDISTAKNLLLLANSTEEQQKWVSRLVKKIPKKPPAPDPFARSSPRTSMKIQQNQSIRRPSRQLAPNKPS

[7] = biological target: Calcium/calmodulin-dependent protein kinase type II subunit gamma (Homo sapiens) (UniProt Q13555); assay: Inhibition of human CAMK2 gamma catalytic domain expressed in baculovirus assessed as substrate phosphorylation using fluorescence-labelled peptides as substrate at 0.06 uM after 90 mins by microfluidic peptide phosphorylation assay
Calcium/calmodulin-dependent protein kinase type II subunit gamma (Homo sapiens), sequence (Q13555 whole entry, the tested form may be a part): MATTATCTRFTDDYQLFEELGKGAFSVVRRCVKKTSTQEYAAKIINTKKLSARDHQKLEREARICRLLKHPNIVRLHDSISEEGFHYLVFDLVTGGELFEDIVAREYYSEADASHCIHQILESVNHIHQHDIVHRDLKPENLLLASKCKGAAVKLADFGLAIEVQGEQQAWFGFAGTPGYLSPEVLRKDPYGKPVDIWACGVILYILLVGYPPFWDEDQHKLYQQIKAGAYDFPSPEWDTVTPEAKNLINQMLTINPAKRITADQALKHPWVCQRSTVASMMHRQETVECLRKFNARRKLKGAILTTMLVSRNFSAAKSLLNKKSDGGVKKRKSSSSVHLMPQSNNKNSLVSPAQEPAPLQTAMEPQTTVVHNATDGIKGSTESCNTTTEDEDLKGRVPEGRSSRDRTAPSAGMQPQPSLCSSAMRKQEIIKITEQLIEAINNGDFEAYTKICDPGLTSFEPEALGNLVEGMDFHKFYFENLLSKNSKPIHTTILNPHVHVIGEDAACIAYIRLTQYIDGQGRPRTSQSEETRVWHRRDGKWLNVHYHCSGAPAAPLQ

[8] = biological target: Protein kinase C eta type (Homo sapiens) (UniProt P24723); assay: Inhibition of human truncated PKC eta expressed in baculovirus assessed as substrate phosphorylation using fluorescence-labelled peptides as substrate at 8 uM after 90 mins by microfluidic peptide phosphorylation assay
Protein kinase C eta type (Homo sapiens), sequence (P24723 whole entry, the tested form may be a part): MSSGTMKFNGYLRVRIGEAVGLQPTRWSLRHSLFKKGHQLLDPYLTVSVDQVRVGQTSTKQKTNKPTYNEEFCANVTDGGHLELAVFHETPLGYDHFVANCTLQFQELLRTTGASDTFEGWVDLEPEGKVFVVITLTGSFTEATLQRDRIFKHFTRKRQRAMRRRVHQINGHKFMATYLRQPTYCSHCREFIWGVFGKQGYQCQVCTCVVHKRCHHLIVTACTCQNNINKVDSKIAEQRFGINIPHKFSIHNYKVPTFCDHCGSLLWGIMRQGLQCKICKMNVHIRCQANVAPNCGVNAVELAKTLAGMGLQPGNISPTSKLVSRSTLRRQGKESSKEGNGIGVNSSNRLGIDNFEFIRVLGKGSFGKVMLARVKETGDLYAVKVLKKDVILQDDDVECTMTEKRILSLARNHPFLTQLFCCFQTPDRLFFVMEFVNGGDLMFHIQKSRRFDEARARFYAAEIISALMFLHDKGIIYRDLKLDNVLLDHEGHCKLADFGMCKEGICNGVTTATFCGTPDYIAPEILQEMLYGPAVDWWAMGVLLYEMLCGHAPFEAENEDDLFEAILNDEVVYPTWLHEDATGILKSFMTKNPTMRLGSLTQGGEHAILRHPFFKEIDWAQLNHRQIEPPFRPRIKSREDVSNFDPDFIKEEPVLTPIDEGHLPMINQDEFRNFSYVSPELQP

[9] = biological target: T2, Serine/threonine-protein kinase Sgk1 (Homo sapiens) (UniProt O00141); assay: Inhibition of human truncated SGK1 expressed in baculovirus assessed as substrate phosphorylation using fluorescence-labelled peptides as substrate at 8 uM after 90 mins by microfluidic peptide phosphorylation assay
T2 sequence (whole entry): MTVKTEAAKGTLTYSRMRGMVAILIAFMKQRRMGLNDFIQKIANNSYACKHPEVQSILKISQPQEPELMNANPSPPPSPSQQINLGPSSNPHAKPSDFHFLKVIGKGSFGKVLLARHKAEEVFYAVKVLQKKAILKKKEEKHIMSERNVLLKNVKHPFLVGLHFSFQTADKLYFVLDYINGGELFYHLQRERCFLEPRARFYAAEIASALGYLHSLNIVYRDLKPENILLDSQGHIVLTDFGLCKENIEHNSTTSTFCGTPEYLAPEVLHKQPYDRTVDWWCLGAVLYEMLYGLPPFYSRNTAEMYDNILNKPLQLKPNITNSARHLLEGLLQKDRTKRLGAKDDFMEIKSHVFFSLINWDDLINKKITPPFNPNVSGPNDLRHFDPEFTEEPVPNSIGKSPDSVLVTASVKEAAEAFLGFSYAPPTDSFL

[10] = biological target: T3, Serine/threonine-protein kinase D1 (Homo sapiens) (UniProt Q15139); assay: Inhibition of human full length PKD1 expressed in baculovirus assessed as substrate phosphorylation using fluorescence-labelled peptides as substrate at 1000 uM after 90 mins by microfluidic peptide phosphorylation assay
T3 sequence (whole entry): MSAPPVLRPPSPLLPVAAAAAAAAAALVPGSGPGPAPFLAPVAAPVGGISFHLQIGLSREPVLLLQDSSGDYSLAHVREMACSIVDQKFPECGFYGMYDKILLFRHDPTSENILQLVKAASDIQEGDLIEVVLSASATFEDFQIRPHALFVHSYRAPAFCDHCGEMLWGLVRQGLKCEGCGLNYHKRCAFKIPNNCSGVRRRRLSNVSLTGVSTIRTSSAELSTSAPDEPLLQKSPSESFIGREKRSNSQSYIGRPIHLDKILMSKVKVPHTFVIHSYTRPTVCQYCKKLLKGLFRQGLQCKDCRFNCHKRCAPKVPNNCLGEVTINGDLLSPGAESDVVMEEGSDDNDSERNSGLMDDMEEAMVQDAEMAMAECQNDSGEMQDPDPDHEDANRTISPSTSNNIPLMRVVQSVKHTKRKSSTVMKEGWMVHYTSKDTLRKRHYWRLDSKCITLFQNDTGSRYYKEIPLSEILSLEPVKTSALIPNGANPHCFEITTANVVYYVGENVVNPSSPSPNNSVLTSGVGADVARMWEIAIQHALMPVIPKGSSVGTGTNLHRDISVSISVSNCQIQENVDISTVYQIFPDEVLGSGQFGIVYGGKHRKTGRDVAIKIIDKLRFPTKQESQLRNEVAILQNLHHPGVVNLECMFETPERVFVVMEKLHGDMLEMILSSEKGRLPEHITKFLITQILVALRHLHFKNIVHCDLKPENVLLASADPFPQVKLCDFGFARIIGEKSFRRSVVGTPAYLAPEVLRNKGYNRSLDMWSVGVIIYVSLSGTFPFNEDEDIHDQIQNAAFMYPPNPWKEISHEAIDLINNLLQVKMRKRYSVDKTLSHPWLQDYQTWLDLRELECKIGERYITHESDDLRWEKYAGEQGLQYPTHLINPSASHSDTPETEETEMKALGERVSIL

Serine/threonine-protein kinase MARK2 (Homo sapiens), sequence (Q7KZI7 whole entry): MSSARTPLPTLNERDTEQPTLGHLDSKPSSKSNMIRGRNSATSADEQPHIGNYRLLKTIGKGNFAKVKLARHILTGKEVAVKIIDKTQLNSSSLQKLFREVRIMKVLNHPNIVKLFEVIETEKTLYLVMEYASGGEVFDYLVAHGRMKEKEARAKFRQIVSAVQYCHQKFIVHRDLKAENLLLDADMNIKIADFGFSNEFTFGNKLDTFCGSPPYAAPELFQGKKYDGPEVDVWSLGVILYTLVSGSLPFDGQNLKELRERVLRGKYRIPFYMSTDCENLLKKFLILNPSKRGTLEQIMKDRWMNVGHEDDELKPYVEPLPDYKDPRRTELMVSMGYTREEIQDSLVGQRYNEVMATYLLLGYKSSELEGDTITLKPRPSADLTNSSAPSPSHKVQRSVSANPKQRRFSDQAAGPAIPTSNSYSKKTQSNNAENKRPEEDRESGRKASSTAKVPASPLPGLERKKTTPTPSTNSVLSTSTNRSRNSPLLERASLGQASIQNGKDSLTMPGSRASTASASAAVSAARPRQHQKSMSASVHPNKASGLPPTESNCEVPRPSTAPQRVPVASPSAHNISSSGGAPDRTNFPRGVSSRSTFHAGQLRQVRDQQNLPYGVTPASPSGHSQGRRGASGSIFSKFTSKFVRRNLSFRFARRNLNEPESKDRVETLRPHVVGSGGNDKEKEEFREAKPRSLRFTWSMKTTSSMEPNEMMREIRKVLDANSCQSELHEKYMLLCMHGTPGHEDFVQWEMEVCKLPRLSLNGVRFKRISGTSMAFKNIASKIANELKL

## Clc1ccc(C2(c3ccc(-c4ncnc5[nH]cnc45)cc3)CCNCC2)cc1
[1]
  inhibition: 41.5%

## c1nc(N2CCOCC2)c2nc[nH]c2n1
[2]
  inhibition: 85%

## NC1CCN(c2ncnc3[nH]ccc23)CC1
[3]
  inhibition: 8.5%
[4]
  inhibition: 0.5%

## C[C@H](CN(C)C)Oc1nc(Nc2cc3cccc(Cl)c3cn2)cnc1C#N
[5]
  inhibition: 0%

## NCCc1ccc(-c2ncnc3[nH]cnc23)cc1
[6]
  inhibition: 93.5%

## NC1(Cc2ccc(Cl)cc2)CCN(c2ncnc3[nH]ccc23)CC1
[7]
  inhibition: 0%

## NCC1CCN(c2ncnc3[nH]ccc23)CC1
[8]
  inhibition: 82%
[9]
  inhibition: 59%

## c1cnc2[nH]ccc2c1
[10]
  inhibition: 54%
